Experimental data: US10828372B2, “Compositions and methods for the inhibition of fibrosis” (WISCONSIN ALUMNI RESEARCH FOUNDATION, priority 2017, dated 2020)
Where no end group is shown, it is not given here. PEG10kDa = 10 kDa linear methoxy-PEG propionaldehyde on the N-terminus; PEG20kDa = 20 kDa linear methoxy-PEG propionaldehyde on the N-terminus

Experiments:
human plasma FN = assay: Isothermal Titration calorimetry (ITC) of peptide binding to fibronectin; conditions: pH 7.4 PBS, 25° C., triplicate
human plasma FN, sequence (P02751 32-608 limits assumed): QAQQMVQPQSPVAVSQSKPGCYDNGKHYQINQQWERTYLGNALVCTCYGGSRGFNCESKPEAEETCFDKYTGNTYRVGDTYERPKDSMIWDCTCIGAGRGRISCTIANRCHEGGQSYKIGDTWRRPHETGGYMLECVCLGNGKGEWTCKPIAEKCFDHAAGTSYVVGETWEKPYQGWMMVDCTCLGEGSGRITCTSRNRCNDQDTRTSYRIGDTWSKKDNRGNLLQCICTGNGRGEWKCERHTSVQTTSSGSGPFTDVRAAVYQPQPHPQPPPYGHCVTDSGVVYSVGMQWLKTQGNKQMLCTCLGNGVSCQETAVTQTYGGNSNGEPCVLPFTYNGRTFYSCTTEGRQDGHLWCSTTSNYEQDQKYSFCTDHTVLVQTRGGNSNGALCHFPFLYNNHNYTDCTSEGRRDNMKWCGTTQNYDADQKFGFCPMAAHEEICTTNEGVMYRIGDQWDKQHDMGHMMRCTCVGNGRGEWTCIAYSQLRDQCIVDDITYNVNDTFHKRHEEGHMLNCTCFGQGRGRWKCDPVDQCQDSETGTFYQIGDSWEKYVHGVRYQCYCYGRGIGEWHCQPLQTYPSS
Protocol: Isothermal Titration calorimetry (ITC): ITC experiments were performed using a VP-ITC microcalorimeter (MicroCal, LLC) with a cell volume of 2.2 mL. In a typical experiment, the cell was filled with 1.4 mL of 2 μM human plasma FN and the syringe was filled with 1 mL of 28 μM FUD or PEG-FUD peptides. The temperature was set to 25° C. The titration experiment was performed in 39 injections (1×1, 4×4, and 34×8 μL) delivered in 120 sec intervals. Prior to injection, both FN and the peptides were dialyzed in separate dialysis bags overnight into the same PBS buffer (pH 7.4) solution. Routine analysis involved discarding of the first data point and subtraction of peptide into PBS buffer control run. Data were fit using one set of sites model Lavenberg-Marquardt nonlinear regression in Origin 7.0.
The binding of 10 kDa, 20 kDa, and 40 kDa PEG-FUD to FN was studied using Isothermal Titration calorimetry (ITC). This technique was used to determine the thermodynamic parameters as well as the binding constant (Kd) of the interaction. The peptide was injected into a human plasma FN solution in PBS at pH 7.4 and 25° C. in triplicate runs. […] A Kd of 6 (±3) nM was detected for FUD:FN. […] Similar entropy change of −65 (±3) cal/mol, −74 (±7) cal/mol, −66 (±7) cal/mol, and −73 (±2) and enthalpy change of −31 (±1) kcal/mol, −34 (±2) kcal/mol, −30 (±1) kcal/mol, and −32.5 (±0.5) kcal/mol were detected for the interaction of FUD and 10 kDa, 20 kDa, and 40 kDa PEG-FUD with FN, respectively. […] This observation is contrary to the expectation of PEG attachment diminishing a drug's affinity for its binding partner and presents an unexpected but desired feature of the PEG-FUD peptide.

[1] = test system: Alexa 488-labeled human plasma FN; assay: Matrix Assembly in vitro Assay (MAA), A488-FN deposition by AH1F fibroblasts; type: cell-based; conditions: 24 hours, viability-normalized fluorescence, n=4, FUD run alongside each conjugate
Alexa 488-labeled human plasma FN, sequence (P02751 32-608 limits assumed): as above
Protocol: Matrix Assembly Assay: The matrix assembly assay was conducted in the 96-well plate format as described in the art. AH1F human skin fibroblast cells resuspended in 2% fetal bovine serum were added to each well for a density of 60,000 cells per well. A 1 hr incubation period at 37° C. followed to allow cell adhesion and spreading. FUD, PEG-FUD, or PEG-mFUD were added to each well following incubation. Immediately, Alexa Fluor® 488 fluorescence labeled human plasma fibronectin (A488-FN) was then added to each well for a final FN concentration of 11 μg/mL. The cells were then incubated for 24 hours at 37° C. Non-assembled FN was removed from each well by washing with Hank's Balanced Salt Solution (HBSS) containing Ca^2+ and Mg^2+. The well volume was restored to 60 μL with HBSS and a fluorescence reading from the bottom of each well was taken using a Synergy™ H1 (Biotek) plate reader (excitation: 485 nm, Emission: 538 nm). Cell viability was quantified using CellTiter-Glo® cell viability assay using the manufacturer's protocol. A 30 μL aliquot of HBSS was removed from each well and was replaced with 30 μL of the luminescence reagent prepared shortly beforehand. Luminescence was quantified using the same plate reader. The average of fluorescence values of a no A488FN or inhibitor control group were routinely subtracted from the readings of each well and were normalized using each well's corresponding luminescence value. Lastly, the cell viability normalized fluorescence values were expressed as a percentage of the 0 nM drug control group. The final results were processed using Graphpad Prism 7.0 software. IC50 values were extracted using a four-parameter dose-response curve function. Student's t test was used to determine significance of differences among peptides at a given drug concentration.
The PEG-FUD FN fibrillogenesis inhibitory performance was evaluated in vitro using the matrix assembly assay (MAA). The methodology of this assay is depicted in FIG. 8. The MAA quantifies ECM deposition of exogenous AlexaFluor® 488-labeled FN (A488FN) by a confluent monolayer of fibroblasts after an incubation period by measuring fluorescence of deposited FN. In this study, the performance of PEG-FUD peptides was compared to that of FUD and the PEG-mFUD control peptide using the AH1F human foreskin fibroblast cell line.

[2] = Fluorescence imaging (IVIS) of subcutaneous dose absorption; type: in vivo, mouse; conditions: for % dose remaining at the site of injection after 24 hours / apparent half-life at the site of injection: s.c. 12.5 mg/kg FUD equivalents; for apparent half-life at the site of injection: spiked with 1.5% Cy5 labeled drug, nude mice
Protocol: Preparation of Animal Experiment FUD and 10-40 kDa PEG-FUD Drug Dose: A 12.5 mg FUD equivalents per kg of mouse weight drug dose spiked with 1.5% Cy5 labeled drug was prepared by mixing an appropriate amount of unlabeled and labeled drug in a conical vial. The drug was then dialyzed ON into phosphate buffered saline (pH 7.4) using a 3000 MWCO dialysis membrane. The total volume of the dose was reduced to the appropriate value using a 3000 MWCO Amicon® Ultra-15 centrifugal unit. The final concentration of the drug was determined using a UV-vis spectrophotometer and the 646 nm extinction coefficient of Cy5, ε=271000 L·mol^−1·cm^−1.
10 week old mice weighing 20-23 g were placed under 2% isoflurane anesthesia and positioned on their abdomen inside of an IVIS Spectrum In Vivo Imaging System. A 100 uL dose containing 0.27 mg (12.5 mg/kg) of FUD or FUD equivalents of 10-40 kDa PEG-FUD that was spiked with 1.5% Cy5 labeled drug was delivered subcutaneously between the shoulder blades of the animals (n=3 per treatment group). The animals were imaged before the injection, immediately following injection, and at time points of 30 minutes and 1, 3, 6, 12, 24, 36, and 48 hours. The animals were sacrificed following the last time point and their organs were harvested for ex vivo fluorescence imaging and drug extraction and quantification. LivingImage® (PerkinElmer) software was used to analyze the views of each animal group. The autodraw feature of the software set to a 5% threshold was used to create unique regions of interest (ROI) on each animal at t=30 mins views that were consistently applied to each subsequent time point views to quantify drug levels present at the site of injection. Baseline autoflorescence values calculated from ROIs applied to “before injection” views were subtracted from the values of each time point's animals. The ROI values obtained from the t=30 mins views were used to calculate % dose remaining for each subsequent time point.

[3] = literature examples; cited from earlier work

| Substance | Kd (human plasma FN) | IC50 [1] | migration into the site of injury (ear tag wound) ([2]; fluorescence imaging) | % dose remaining at the site of injection after 24 hours [2] | apparent half-life at the site of injection [2] | reduction of activity upon PEGylation [3] |
| --- | --- | --- | --- | --- | --- | --- |
| 10 kDa PEG-FUD: FUD N-terminally mono-PEGylated with 10 kDa linear methoxy-PEG propionaldehyde (PEG10kDa-KDQSPLAGESGETEYITEVYGNQQNPVDIDKKLPNETGFSGNMVETEDT) | 4.6 nM | 17 nM | migration of 10 K PEG-FUD into the site of injury | 1.2% | 2.8 h | – |
| 20 kDa PEG-FUD: FUD N-terminally mono-PEGylated with 20 kDa linear methoxy-PEG propionaldehyde (PEG20kDa-KDQSPLAGESGETEYITEVYGNQQNPVDIDKKLPNETGFSGNMVETEDT) | 10 nM | 23 nM | – | 3.5% | 6.2 h | – |
| 40 kDa PEG-FUD: FUD N-terminally mono-PEGylated with 40 kDa branched methoxy-PEG propionaldehyde ({mPEG 40 kDa branched}-KDQSPLAGESGETEYITEVYGNQQNPVDIDKKLPNETGFSGNMVETEDT) | 14.7 nM | 20 nM | – | 7.9% | 8.7 h | – |
| PEG-G120K-GH: literature example of a PEGylated protein with reduced activity | – | – | – | – | – | 186 fold |
